The structures appear in SMILES notation. The source made the active and inactive calls.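 The calls were made as follows: active = AC50 no more than tenfold above the top dose tested, or full inhibition at every dose with a flat fit (cut at about 19 µM in these data); inconclusive = flat curve fit with inhibition between 30% and 70%, or poor fit; inactive = AC50 more than tenfold above the top dose tested.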

For the experiment, the system named is HMLE_sh_eGFP viability, CellTiter-Glo luminescence, 72 h. Put plainly: viability loss of HMLE_sh_eGFP cells – cell-based, luminescence, counter-screen for HMLE_sh_ECad selective toxicity project, dose response (AID 463074).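 Also: counterscreen control line to flag general toxicity for the HMLE_sh_ECad screen; potency for loss of viability as luminescence drops below DMSO wells.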
`C=CCC[C@@H](Cc1ccc(F)cc1)C(=O)OC[C@@H](Cc1c[nH]c2ccccc12)NC(=O)[C@@H](CC=C)CC(=O)N(CCO)Cc1ccccc1`: the AC50 – broadly, the midpoint of the concentration-response curve, whichever way the signal moves – is 7.13 µM. For `CCn1c2ccccc2c2cc(NC(=O)c3cccc([N+](=O)[O-])c3)ccc21`, the AC50 is 3.63 µM. For the molecule `Cc1ccc([N+](=O)[O-])cc1N(CC(=O)Nc1ccc(S(=O)(=O)Nc2cccc(C(F)(F)F)c2)cc1)S(C)(=O)=O`, the AC50 was 4.67 µM. The same measure for `O=C(NCc1cccnc1)/C(=C/c1ccc(-c2cccc(Cl)c2)o1)S(=O)(=O)c1ccccc1`: 2.66 µM; for `Cc1ccccc1N=C(NOCc1ccc(Cl)cc1Cl)c1nonc1N`: 3.81 µM. Under `Cc1ccc(C(NC(=O)C(C)C)c2cc([N+](=O)[O-])c3cccnc3c2O)cc1` (stereo not given) stands 3.16 µM.

For the molecule `O=C(c1ccccc1)c1nn(-c2ccc(Cl)cc2)c(=O)cc1C(F)(F)F`, the AC50 was 3.68 µM. For `O=C(NNC1=C(C(=O)C(F)(F)F)CCC1)c1ccc(Cl)cc1`, the AC50 is 4.25 µM.

As for `CCOC(=O)c1c(CSc2ccccc2)n(C)c2cc(Br)c(OCC(O)CNC(CO)(CO)CO)cc12` (stereo not given), the AC50 was 1.84 µM.

In the case of `COc1ccc(/C=N/OCC(=O)N2CC3(C)CC2CC(C)(C)C3)cc1` (stereo not given), the half-maximal activity concentration (AC50) was 14.3 µM.

As for `CCOc1cc(CNc2ccc(Br)cc2)cc(Br)c1OCC(=O)NC(C)(C)C`, the AC50 was 6.32 µM. With `CN(C(=O)COC(=O)/C=C/c1cccc([N+](=O)[O-])c1)C1CCS(=O)(=O)C1` (stereo not given), the AC50 is 4.61 µM. The same measure for `CN1CCN(S(=O)(=O)c2cccc(C(=O)Nc3cc(C(F)(F)F)ccc3N3CCCCC3)c2)CC1`: 5.34 µM; for `Cc1cc(-c2ccccc2)nc2cc(C(=O)N(Cc3ccccc3)Cc3ccccc3)nn12`: 10.8 µM; for `CN(C)CCCNc1ccc(-c2cc(Nc3cccc(Cl)c3)ncn2)cn1`: 4.8 µM. `NC(=O)CC(NC(=O)Cc1cccc2ccccc12)c1ccc(N2CCc3ccccc3C2)c([N+](=O)[O-])c1` (stereo not given): the AC50 was 17.6 µM. As for `CCOC(=O)N1CCN(S(=O)(=O)c2ccc(C(=O)NNc3nc4cc(C)cc(C)c4s3)cc2)CC1`, the AC50 was 3.7 µM. As for `C=C(C)COc1ccc(-c2nc(N)ncc2-c2ccc(Br)cc2)c(O)c1`, the AC50 is 7.37 µM. Under `Cc1nn(-c2ccc(F)cc2)c(Cl)c1/C=C1\C(=O)Nc2ccccc21` stands 2.34 µM; under `CCCC/C(C)=C/[C@@H](NP(=O)(c1ccccc1)c1ccccc1)c1ccccc1`, 6.68 µM; under `CCc1c(C)sc(NC(=O)/C=C/c2ccc3c(c2)OCO3)c1C(=O)OC`, 0.776 µM. The same measure for `CCN(CC)S(=O)(=O)c1ccc2c(c1)C(=NO)c1cc(S(=O)(=O)N(CC)CC)ccc1-2`: 0.756 µM.

In the case of `COc1ccccc1/C=C/C=N/n1c(-c2n[nH]c3c2CCC3)n[nH]c1=S`, the AC50 was 19.7 µM. Regarding `Cc1cc(N2CCN(c3ccc(C(F)(F)F)cc3[N+](=O)[O-])CC2)c2ccccc2n1`, the AC50 was 1.38 µM. For `O=C(Nc1nc(-c2cccs2)cs1)c1ccc([N+](=O)[O-])o1`, the AC50 is 3.18 µM. The same measure for `COc1ccccc1-c1cn[nH]c1-c1ccc(OCc2ccccc2F)cc1O`: 6.88 µM; for `CC(=O)c1ccc(NC(=O)c2ccc([N+](=O)[O-])o2)cc1`: 7.8 µM; for `Clc1ccc(CSc2nnnn2-c2ccc3c(c2)OCO3)c(Cl)c1`: 10.6 µM.

In the case of `O=C(Nc1ccccc1)Nc1cc(Cl)cc(Cl)c1`, the AC50 was 5.13 µM. Under `O=C(O)c1ccccc1C(=O)NNc1ccc(Cl)cc1` stands 3.95 µM; under `O=C(Nc1ccc(N2CCN(Cc3ccccc3F)CC2)cc1)c1ccc([N+](=O)[O-])o1`, 1.94 µM. The same measure for `COc1ccc(/C=N/NC(=S)Nc2ccccc2[N+](=O)[O-])cc1O`: 5.87 µM. The same measure for `O=C(/C=C/c1ccccc1[N+](=O)[O-])c1ccccc1Br`: 3.64 µM; for `CCn1c(=O)c(C(=O)NCc2ccccc2OC)c(O)c2ccccc21`: 17.4 µM; for `S=C(Nc1ccccc1Cl)N1CCCC(c2ccccc2)=N1`: 8.88 µM. On to `CCC1=NN(C(=O)c2cccc(Br)c2)C(O)(c2ccc(Br)cc2)C1` (stereo not given), for which the half-maximal activity concentration (AC50) is 1.37 µM. `CCN(CC(=O)NC1CCCCC1)S(=O)(=O)c1ccc(Cl)cc1`: the AC50 was > 19.5 µM (inactive). Under `O=C(NNC1=C(C(=O)C(F)(F)F)CCC1)c1ccc(Br)cc1` stands 3.6 µM. The same measure for `COC(=O)c1ccc(/C=C/c2c(-c3ccc(OC)cc3)sc3ccccc23)cc1`: 7.05 µM; for `COc1cccc(/C=N/NC(=O)CSc2nnc(C)n2-c2ccccc2)c1O`: 5.01 µM. Under `O=C(Nc1ccccc1)Nc1ccc(O)c2ccccc12` stands 3.94 µM. With `CC(C)(Oc1ccc(Cl)cc1)C(=O)NC1=NN(c2ccccc2)C(=O)C1`, the AC50 was 6.11 µM. On to `COc1ccccc1-c1sc2ccccc2c1C#CC1(O)CCCCC1`, for which the AC50 was 10.8 µM.

In the case of `OCCN(CCO)CC(O)COc1ccc(C23CC4CC(CC(C4)C2)C3)cc1` (stereo not given), the AC50 is 0.493 µM. For the molecule `COc1ccc(-c2csc(NC(=S)NC(=O)/C=C/c3ccco3)n2)cc1OC`, the concentration at half-maximal activity (AC50) is 3.72 µM.

Turning to `O=C(Nc1nc2ccccc2s1)C1CCN(S(=O)(=O)c2cc([N+](=O)[O-])ccc2Cl)CC1`, the AC50 was 19 µM. On to `COc1ccc(Br)cc1C(=O)NC(=S)Nc1cc(-c2nc3ccccc3[nH]2)ccc1C`, for which the AC50 was > 19.5 µM (inactive).

Take `CCOc1ccc(OCc2cccc(C(=O)Nc3ccc(CN4CCCCC4)cc3)c2)cc1`: the concentration at half-maximal activity (AC50) was 5.38 µM. The same measure for `CC(C)(C)c1cc(C(=O)NNc2cc(C(F)(F)F)ccc2Cl)n(Cc2ccccc2)n1`: 4.18 µM. Under `CN(C)CCn1c2ccccc2c2nc3ccc([N+](=O)[O-])cc3cc21` stands 15.6 µM; under `CCc1ccc2[nH]c(=O)c(C3C(C#N)=C(N)Oc4c3ccc3cccnc43)cc2c1` (stereo not given), 8.92 µM. For `O=C(CSc1nc2nc(-c3cccs3)cc(C(F)(F)F)c2c(=O)[nH]1)Nc1c(F)c(F)c(F)c(F)c1F`, the AC50 is 3.43 µM.

In the case of `Cc1csc(NC(=S)Nc2cccc(Cl)c2)n1`, the AC50 was 10.4 µM.

For `FC(F)(F)c1ccc(C2[C@H]3CN(Cc4cccnc4)[C@H](c4ccccc4)C34CC2(c2cccnc2)C4)cc1` (stereo not given in full), the AC50 is 3.67 µM. The same measure for `Cc1ccccc1-c1ccc(CN2CCN(C)C(CCO)C2)cc1` (stereo not given): 5.43 µM; for `CC(C)COc1ccc(-c2nn(-c3ccccc3)cc2/C=C2/SC(=S)N(CC(=O)O)C2=O)cc1`: 4.51 µM; for `Cc1oc(CC(C)C)cc1C(=O)Nc1cccc2ccccc12`: 5.98 µM. Under `COc1ccccc1/C=C1\SC(=O)N(CCC(=O)NCCCn2ccnc2)C1=O` stands 19.5 µM; under `O=C(CN(c1cccc(C(F)(F)F)c1)S(=O)(=O)c1ccc(Cl)c([N+](=O)[O-])c1)NCc1ccccc1Cl`, 2.6 µM. Under `C/C(=N\NC(=O)c1cccc(Cl)c1)C1C(=O)c2ccccc2C1=O` stands 20.1 µM; under `Cc1noc(C)c1COc1cccc(C(=O)Nc2ccc(OCc3ccccc3)cc2)c1`, 15.5 µM. For `C[C@@]12CCC=C[C@H]1[C@H](c1ccc(F)c(/C=C/c3ccccc3)c1)N(Cc1ccccc1)C2=O`, the AC50 is 7.18 µM. Under `O=C(Nc1cccc(-c2csc(-c3ccccc3)n2)c1)c1cccs1` stands 5.22 µM; under `CCS(=O)(=O)Nc1ccc(-c2cc(-c3ccccc3)c3cc(C)ccc3n2)cc1`, 3.85 µM; under `CCC(C)Sc1cccc(-c2nc3cc(C)ccn3c2NCc2ccccc2)c1` (stereo not given), 4.89 µM.

For the origin of these results see PubChem BioAssay AID463074 (Broad Institute, 2010).
